Measured values as given in US8993595B2, “Macrocyclic serine protease inhibitors” (priority 2009, dated 2015).

Tests used:
[1] = target: T1, HCV NS3-4A Protease Genotype 2a (Hepatitis C virus genotype 2a, UniProt Q99IB8); test: HCV protease assay, recombinant NS3-4A genotype 2a; type: biochemical; conditions: mean ± SD, 3 experiments
T1 construct: recombinant HCV NS3-4A proteases
Experimental: The compounds were tested at a variety of concentrations in assay buffer containing a final DMSO concentration of 5%. Reactions were allowed to proceed for 60 min at room temperature and fluorescence measurements were recorded with a Tecan Infinity Spectrofluorimeter. The IC50 values were determined from the percent inhibition versus concentration data using a sigmoidal non-linear regression analysis based on four parameters with Tecan Magellan software.
Compound 52 was tested against genotypes 1a, 1b, 2a, 3a, and 4a of recombinant HCV NS3-4A proteases, along with other cellular proteases.

NS3-4A (Con1) = NS3-4A (Con1) (Hepatitis C virus genotype 1b, UniProt Q9WMX2); test: Binding kinetics by surface plasmon resonance; design: species or system HCV
Experimental: The binding kinetics of compound 52 to NS3-4A (Con1) was also determined using surface plasmon resonance.

[2] = tested on: HCV Con1 subgenomic replicon in Huh-7 cells (GS4.1 cells); test: HCV Replicon Assay (NS4A ELISA); type: cell-based; conditions: Hepatitis C virus, 72 hr
Experimental: Huh-7 cells containing HCV Con1 subgenomic replicon (GS4.1 cells) were grown in Dulbecco's Modified Eagle Medium (DMEM) supplemented with 10% fetal bovine serum (FBS), 2 mM L-glutamine, 110 mg/L sodium pyruvate, 1× non-essential amino acids, 100 U/mL penicillin-streptomycin, and 0.5 mg/mL G418 (Invitrogen). For dose-response testing, the cells were seeded in 96-well plates at 7.5×10^3 cells/well in a volume of 50 μL, and incubated at 37° C./5% CO2. Three hours after plating, 50 μL of ten 2-fold serial dilutions of compounds (highest concentration, 75 μM) were added, and cell cultures were incubated at 37° C./5% CO2 in the presence of 0.5% DMSO. Alternatively, compounds were tested at a single concentration of 15 μM. In all cases, Huh-7 cells lacking the HCV replicon served as negative control. The cells were incubated in the presence of compounds for 72 hr after which they were monitored for expression of the NS4A protein by enzyme-linked immunosorbent assay (ELISA). For this, the plates were then fixed for 1 min with acetone/methanol (1:1, v/v), washed twice with phosphate-buffered saline (PBS), 0.1% Tween 20, blocked for 1 hr at room temperature with TNE buffer containing 10% FBS and then incubated for 2 hr at 37° C. with the anti-NS4A mouse monoclonal antibody A-236 (ViroGen) diluted in the same buffer. After washing three times with PBS, 0.1% Tween 20, the cells were incubated 1 hr at 37° C. with anti-mouse immunoglobulin G-peroxidase conjugate in TNE, 10% FBS. After washing as described above, the reaction was developed with O-phenylenediamine (Zymed). The reaction was stopped after 30 min with 2 N H2SO4, and absorbance was read at 492 nm using Sunrise Tecan spectrophotometer. EC50 values were determined from the % inhibition versus concentration data using a sigmoidal non-linear regression analysis based on four parameters with Tecan Magellan software.

[3] = tested on: ZlucA cell line (genotype 1b replicon selected with 10 nM compound 52, D168V); test: Extent of resistance after selection, luciferase assay, ZlucA; type: cell-based, HCV; conditions: selecting conc. 10 nM, EC50 resistant / EC50 wild-type
Experimental: (§1) Replicon cells (genotype 1a or 1b) were treated with various concentrations of compound 52 in the presence of G418. Treatment-emergent genotypic changes were identified by population sequencing of NS3 (both protease and helicase regions). The activity of compound 52 and other compounds was evaluated by NS5A western blot after selection or luciferase assay during and after selection.
Eight drug-resistance replicon cell lines were created by long-term culture of genotype 1b replicon cells with 10 or 25 nM of compound 52. NS3 (AAs 1-631) was sequenced at each passage.

[4] = tested on: D-1a cell line (genotype 1a replicon selected with 25 nM, D168A); test: Extent of resistance after selection, D-1a; type: cell-based, HCV; conditions: selecting conc. 25 nM
Experimental: as §1

[5] = tested on: replicon bearing NS5B Mutation C316Y
Experimental: (§2) The activity of compound 52 was evaluated against replicons bearing single protease inhibitor-resistance mutations as compared to its activity against the wild-type replicon. Mutations were introduced into a genotype 1b luciferase-replicon by site-directed mutagenesis. Compound activity was measured in cells transiently transfected with in vitro transcribed wild-type or mutant luciferase-replicon RNA by luciferase assay after 4-day treatment. Replication capacity was determined in untreated transfected cells by comparing the luciferase activity at 4 hrs and 4 days post-transfection.
(§3) The activity of compound 52 was also tested against replicons bearing a single polymerase inhibitor-resistance mutation. Each mutation confers resistance to a known polymerase inhibitor as reported in the literature.

[6] = tested on: replicon bearing NS5B Mutation C445F
Experimental: as §2, §3

[7] = tested on: replicon bearing NS5B Mutation C445Y
Experimental: as §2, §3

[8] = tested on: replicon bearing NS5B Mutation M414T
Experimental: as §2, §3

[9] = tested on: replicon bearing NS5B Mutation M423T
Experimental: as §2, §3

[10] = tested on: replicon bearing NS5B Mutation S282T
Experimental: as §2, §3

[11] = tested on: replicon bearing NS5B Mutation Y448H
Experimental: as §2, §3

clinical = conditions: human, in vivo; for AUC(0-inf): AUC0-∞
[12] = 50 mg, single dose 50 mg, human volunteers
[13] = 100 mg, single dose 100 mg, human volunteers
[14] = 200 mg, single dose 200 mg, HCV patients, N = 2
[15] = 200 mg, single dose 200 mg, human volunteers
[16] = 400 mg, single dose 400 mg Fasted, human volunteers
[17] = 400 mg, single dose 400 mg, human volunteers

COc1ccc2c(O[C@H]3CCN4C(=O)N(C)CCCC/C=C\[C@@H]5C[C@@]5(C(=O)NS(=O)(=O)C5(C)CC5)NC(=O)[C@@H]4C3)cc(-c3nc(C(F)(F)F)cs3)nc2c1C [Compound 52, 1-methyl-cyclopropanesulfonic acid{(Z)-(1S,4R,6S,18S)-18-[7-methoxy-8-methyl-2-(4-trifluoromethyl-thiazol-2-yl)-quinolin-4-yloxy]-13-methyl-2,14-dioxo-3,13,15-triaza-tricyclo[13.4.0.0*4,6*]nonadec-7-ene-4-carbonyl}amide]
IC50 [1]: 1.9 ± 0.5 nM | kon (NS3-4A (Con1); read-out: association rate): 27000 M⁻¹ s⁻¹ | koff (NS3-4A (Con1); read-out: dissociation rate): 2.1e-05 s⁻¹ | Kd (NS3-4A (Con1); read-out: equilibrium constant): 0.8 nM | EC50 [2]: < 1000 nM | Fold-Change [3]: 250 ± 66 | Fold-Change [4]: >2750 | Fold-Change [5]: 1.7 ± 0.6 | Fold-Change [6]: 0.9 ± 0.07 | Fold-Change [7]: 0.9 ± 0.07 | Fold-Change [8]: 1.6 ± 0.5 | Fold-Change [9]: 0.9 ± 0.08 | Fold-Change [10]: 1.4 ± 0.6 | Fold-Change [11]: 1.7 ± 0.4 | AUC(0-inf) (clinical; [12]): 2020 ± 744 ng·h/mL | Cmax (clinical; [12]): 346 ± 87 ng/mL | half-life (clinical; 50 mg, T1/2, single dose 50 mg, human volunteers): 780 ± 360 min | Tmax (clinical; [12]): 3 h | AUC(0-inf) (clinical; [13]): 3540 ± 1010 ng·h/mL | Cmax (clinical; [13]): 467 ± 72 ng/mL | half-life (clinical; 100 mg, T1/2, single dose 100 mg, human volunteers): 1440 ± 420 min | Tmax (clinical; [13]): 3 h | AUC(0-inf) (clinical; [14]): 13900 ng·h/mL | AUC(0-inf) (clinical; [15]): 7240 ± 2930 ng·h/mL | Cmax (clinical; [14]): 1060 ng/mL | Cmax (clinical; [15]): 982 ± 463 ng/mL | half-life (clinical; 200 mg, T1/2, single dose 200 mg, HCV patients, N = 2): 1920 min | half-life (clinical; 200 mg, T1/2, single dose 200 mg, human volunteers): 1560 ± 420 min | Tmax (clinical; [14]): 3.5 h | Tmax (clinical; [15]): 3 h | AUC(0-inf) (clinical; 400 mg): 9460 ± 2330 ng·h/mL | AUC(0-inf) (clinical; [16]): 4190 ± 1590 ng·h/mL | Cmax (clinical; [16]): 368 ± 89 ng/mL | Cmax (clinical; [17]): 1120 ± 505 ng/mL | half-life (clinical; 400 mg, T1/2, single dose 400 mg Fasted, human volunteers): 900 ± 480 min | half-life (clinical; 400 mg, T1/2, single dose 400 mg, human volunteers): 1500 ± 420 min | Tmax (clinical; [16]): 3 h | Tmax (clinical; [17]): 3 h
